In US7303876B2 (Applera Corporation, priority 2000, dated 2007):

Tests used:
Liver tissue = Liver tissue disaggregation by 1% surfactant with or without Proteinase K at 60° C.; details: 60° C., 1% surfactant
[1] = Solubility of 1% cationic surfactants in 5M chaotropic salt solutions containing 2% Tween 20; details: 5M chaotropic salts, 2% Tween 20
From the text: The solubilities of several cationic surfactants were examined in different chaotropic salt solutions. The cationic surfactants examined were cetyltrimethylammonium bromide (CTAB), cetyltrimethylammonium chloride (CTACl), tetradecyltrimethylammonium bromide (TTAB), tetradecyltrimethylammonium chloride (TTACl), dodecyltrimethylammonium bromide (DTAB), dodecyltrimethylammonium (DTACl), dodecylethyidimethylammonium bromide (DEDTAB), decyltrimethylammonium bromide (D10TAB), and dodecyltriphenylphosphonium bromide (DTPB). Each of the cationic surfactants tested was presented in a 1% concentration. Each of the cationic surfactants was examined in a 5M solution of one of the chaotropic salts containing 2% Tween 20. Each cationic surfactant and salt combination was tested at pH 6 (50 mM MES), pH 8 (50 mM Tris-HCl), and pH 10 (50 mM AMP).

Calf thymus DNA = assay: Effect of DTAB on DNA recovery when added before, during, and after DNA binding to GF/B; details: pretreatment with 5M salt with 1% DTAB (D+) versus without (D−)
Protocol: The inhibitory effect of the cationic surfactant, DTAB, was further examined. DTAB was introduced at various points of the purification reaction, before DNA binding, during binding, or after DNA binding has occurred on the solid phase. DNA binding and purification procedures were carried out using GF/B glass fiber filters (in a 96-well format) on the ABI PRISM 6100.
In set A, the GF/B membrane was pretreated with 100 μl of liquid lacking (A−) or containing (A+) 1% DTAB. Calf thymus DNA (8 μg) was then bound in 800 μL of 50 mM MES, pH 6.0, 20 mM EDTA, and 5 M salt (either NaBr or GUSCN).
In set B, the membranes were not prewashed. Calf thymus DNA (8 μg) was bound to GF/B glass fiber filters in 800 μl of 50 mM MES, pH, 6.0, 20 mM EDTA, and 5 M salt (either NaBr or GuSCN). Following binding, the membranes were washed in 50 mM MES, pH 6.0, 20 mM EDTA and 5 M salt (either NaBr or GuSCN) either lacking (B−) or containing (B+) 1% DTAB.
In set C, the membranes were not prewashed. Calf thymus DNA (8 μg) was bound to GF/B glass fiber filters in 800 μl of 50 mM MES, pH 6.0, 20 mM EDTA, and 5 M salt (either NaBr or GUSCN) either lacking (C−) or containing (C+) 1% DTAB.
In set D, the GF/B membrane was pretreated with 100 μl of 5 M salt (either NaBr or GuSCN) lacking (A−) or containing (A+) 1% DTAB. […]

CCCCCCCCCCCC[N+](C)(C)C.[Br-] [DTAB, dodecyltrimethylammonium bromide]
Tissue Disaggregation (Liver tissue; Fifteen Minutes Incubation, Proteinase K not present (N)): 0
Tissue Disaggregation (Liver tissue; Fifteen Minutes Incubation, Proteinase K present (Y)): 2
Tissue Disaggregation (Liver tissue; Fifty-Two Minutes Incubation, Proteinase K not present (N)): 0
Tissue Disaggregation (Liver tissue; Fifty-Two Minutes Incubation, Proteinase K present (Y)): 3
relative solubility in chaotropic salt solutions (in words) [1]: more soluble than larger surfactants
subsequent binding of nucleic acid to GF/B (Calf thymus DNA): did not appear to influence subsequent binding of nucleic acid
